According to patent publication US20220389373A1, “METHODS AND SYSTEMS FOR GENERATING THREE-DIMENSIONAL BIOLOGICAL STRUCTURES” (Fluicell AB, priority 2019, published 2022):

Test system: HaCaT cells
Experiment: Retinoic acid treatment of bioprinted psoriasis-like skin model, CK10 immunofluorescence
Type: cell-based, human
Conditions: printed stripes of differentiated (cytokine-treated) and non-differentiated HaCaT cells; RA 1 μM in growth media for 20 hrs; versus solvent control

## CC1=C(/C=C/C(C)=C/C=C/C(C)=C/C(=O)O)C(C)(C)CCC1 [retinoic acid, all-trans retinoic acid]
  decrease in CK10 expression for the treated samples: approximately 20%
